Series [1] relates to ADP-induced platelet aggregation; thrombus formation. The note with it: in words; cited from earlier work.
The test system of a further series is Leukocytes. The series is described as follows: Distribution of ^125 I-labeled CHCl-AP4 A into blood cell fractions: leukocytes. It counts as binding, human. As to the method:
(§1) There are, however, a variety of purinoceptors on other cell types. AP4 A analogues may bind not only to platelets but also to the erythrocytes and leukocytes when whole blood is treated with the agents. […] Platelets were separated by a gradual centrifugation, the packed red cells with buffy coats (leukocytes) were mixed, and fractionated by means of histopaque gradient separation (A. Boyum, Scand J. Clin. Lab. Invest. 21(suppl 97):77 (1968)). The cell fractions were washed twice and final suspensions were counted for cell number and the radioactivity. Percent distribution was calculated based on the CBC data of whole blood. Binding sites are expressed in the values per cells.

In series [2] the test system is ADP-induced platelet aggregation. To be noted: Zamecnik '550 Table 3, read-out: ID50 (the source's name); cited from earlier work.
Series [3] has the same test system. To be noted: reference agent, kinetic study demonstrated previously (PNAS 1992); read-out: inhibition constant (Ki); cited from earlier work.
Another series has as its system Erythrocytes. The series is described as follows: Distribution of ^125 I-labeled CHCl-AP4 A into blood cell fractions: erythrocytes. It counts as binding, human. As to the method:
as §1

In a further series the test system is Platelets. The series is described as follows: Distribution of ^125 I-labeled CHCl-AP4 A into blood cell fractions: platelets. Format: binding, human. As to the method: as §1
Series [4] concerns ADP-induced platelet aggregation. The series is described as follows: Inhibition kinetic study, ADP-induced platelet aggregation. It counts as cell-based, human. As to the method: Unless otherwise provided below, the experimental procedures were performed according to the procedures provided in U.S. Pat. No. 5,049.550 (Zamecnik '550), the entire contents of which are incorporated herein by reference. Some alternative procedures (e.g., release reaction, PF3 assays) and a number of additional studies also are provided (e.g., cytoplasmic calcium mobilization, fibrinogen binding site, agonists other than ADP, platelet cAMP and distribution of CHCl-AP4 A into blood components). Blood was collected in a 0.1 volume of 3.8% sodium citrate from healthy human volunteers who had abstained from antiplatelet agents for at least 10 days. Platelet rich plasma (PRP) was separated by a gradual centrifugation and adjusted to 3.3×10^8 platelets per ml plasma. PRP has been utilized in the Examples unless otherwise stated.
An initial screening was performed for inhibitory effects of several agents (including, e.g., thio-CHCl-AP4 A and CHCl-AP4 A as reference agent)) on platelet aggregation induced by ADP. Platelet aggregation was measured with platelet-rich plasma (PKP) by the turbidimetric method of Born (J. Physiol. 162:67, 1962) in an aggregometer (Chrono-log, Model 530 VS). Platelet aggregation induced by 5 μM ADP in the absence or presence of 5 μM agents was examined. […]

The mark [5] stands for this setting: 23 μM, 22° C., 30 minutes, mean of two.

We go through two molecules from patent US5681823A, “P^1, P^4 -dithio-P^2 -P^3 -monochloromethylene 5', 5'"-diadenosine P^1, P^4 -tetraphosphate as antithrombotic agent” (PRP Inc., priority 1996, dated 1997).

Like-named read-outs stand apart in the source and are kept apart here.

As for `Nc1ncnc2c1ncn2[C@@H]1O[C@H](COP(=O)(O)OP(=O)(O)C(Cl)P(=O)(O)OP(=O)(O)OC[C@H]2O[C@@H](n3cnc4c(N)ncnc43)[C@H](O)[C@@H]2O)[C@@H](O)[C@H]1O` (some centres unmarked) [CHCl-AP4 A], the “effect on thrombus formation on administration to a mammal” value in series [1] was “inhibit thrombus formation”. The “Distribution (%)” value worked out at 1.94% in the series on Leukocytes (setting [5]), 2.09% in the series with Erythrocytes (setting [5]) and 0.55% in the series with Platelets (setting [5]). The “Binding Sites” value in the series with Leukocytes (gross estimation per cell) is recorded as 7.39 × 10^7 per cells; in the series on Erythrocytes (gross estimation per cell) it was 5.98 × 10^4 per cells; with Platelets (gross estimation per cell) it was 3.08 × 10^5 per cells. In addition, the binding sites per surface area, relative value worked out at 1000 with Leukocytes (relative, leukocytes); 1 in the series with Erythrocytes (relative, erythrocytes); 100 in the series on Platelets (relative, platelets). In addition, in series [2], the IC50 was 3 µM. Moreover, the Ki in series [3] is 1.1 µM.
For the molecule `Nc1ncnc2c1ncn2[C@@H]1O[C@H](COP(O)(=S)OP(=O)(O)C(Cl)P(=O)(O)OP(O)(=S)OC[C@H]2O[C@@H](n3cnc4c(N)ncnc43)[C@H](O)[C@@H]2O)[C@@H](O)[C@H]1O` (some centres unmarked) [Thio-CHCl-AP4 A, P^1, P^4 -dithio -P^2 -P^3 monochloromethylene 5', 5'" diadenosine P^1, P^4 -tetraphosphate], the nature of inhibition entry in series [4] is “competitive inhibition”. Also, the Ki in series [4] (ADP-induced aggregation, read-out: inhibition constant (Ki)) is 0.33 µM.

A word on the Ki: it is the dissociation constant of the complex between target and ligand, obtained from inhibition or displacement.
